# From PubChem BioAssay AID1918931 (Molecular Pharmacology Branch, DTP, NCI, 2023)
# Test system: 138582-337-R-J1-PDC complex spheroid viability
# Experiment: Anticancer human tumor 138582-337-R-J1-PDC patient-derived Merkel cell tumor cell line growth inhibition
# Conditions: for IC50: curve of first compound; for viability, T/C: stronger effect = lower value
# How it was run: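 Drug combinations with the LSD1 inhibitor iadademstat tested on tumor cells co-cultured as spheroids with endothelial cells and mesenchymal stem cells. Concentrations descended in half-log increments from clinical Cmax or 10 microM.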
# [1] = second compound 0.1 µM, first compound 0.000316 µM
# [2] = second compound 0.1 µM, first compound 0.001 µM
# [3] = second compound 0.1 µM, first compound 0.00316 µM
# [4] = second compound 0.1 µM, first compound 0.01 µM
# [5] = second compound 0.1 µM, first compound 0.0316 µM
# [6] = second compound 0.1 µM, first compound 0.1 µM
# [7] = second compound 0.316 µM, first compound 0.000316 µM
# [8] = second compound 0.316 µM, first compound 0.001 µM
# [9] = second compound 0.316 µM, first compound 0.00316 µM
# [10] = second compound 0.316 µM, first compound 0.01 µM
# [11] = second compound 0.316 µM, first compound 0.0316 µM
# [12] = second compound 0.316 µM, first compound 0.1 µM
# [13] = second compound 1 µM, first compound 0.000316 µM
# [14] = second compound 1 µM, first compound 0.001 µM
# [15] = second compound 1 µM, first compound 0.00316 µM
# [16] = second compound 1 µM, first compound 0.01 µM
# [17] = second compound 1 µM, first compound 0.0316 µM
# [18] = second compound 1 µM, first compound 0.1 µM
# [19] = second compound 3.16 µM, first compound 0.000316 µM
# [20] = second compound 3.16 µM, first compound 0.001 µM
# [21] = second compound 3.16 µM, first compound 0.00316 µM
# [22] = second compound 3.16 µM, first compound 0.01 µM
# [23] = second compound 3.16 µM, first compound 0.0316 µM
# [24] = second compound 3.16 µM, first compound 0.1 µM
# [25] = second compound 10 µM, first compound 0.000316 µM
# [26] = second compound 10 µM, first compound 0.001 µM
# [27] = second compound 10 µM, first compound 0.00316 µM
# [28] = second compound 10 µM, first compound 0.01 µM
# [29] = second compound 10 µM, first compound 0.0316 µM
# [30] = second compound 10 µM, first compound 0.1 µM
# [31] = second compound 0.1 µM, first compound 0.00949 µM
# [32] = second compound 0.1 µM, first compound 0.03 µM
# [33] = second compound 0.1 µM, first compound 0.0949 µM
# [34] = second compound 0.1 µM, first compound 0.3 µM
# [35] = second compound 0.1 µM, first compound 0.949 µM
# [36] = second compound 0.1 µM, first compound 3 µM
# [37] = second compound 0.316 µM, first compound 0.00949 µM
# [38] = second compound 0.316 µM, first compound 0.03 µM
# [39] = second compound 0.316 µM, first compound 0.0949 µM
# [40] = second compound 0.316 µM, first compound 0.3 µM
# [41] = second compound 0.316 µM, first compound 0.949 µM
# [42] = second compound 0.316 µM, first compound 3 µM
# [43] = second compound 1 µM, first compound 0.00949 µM
# [44] = second compound 1 µM, first compound 0.03 µM
# [45] = second compound 1 µM, first compound 0.0949 µM
# [46] = second compound 1 µM, first compound 0.3 µM
# [47] = second compound 1 µM, first compound 0.949 µM
# [48] = second compound 1 µM, first compound 3 µM
# [49] = second compound 3.16 µM, first compound 0.00949 µM
# [50] = second compound 3.16 µM, first compound 0.03 µM
# [51] = second compound 3.16 µM, first compound 0.0949 µM
# [52] = second compound 3.16 µM, first compound 0.3 µM
# [53] = second compound 3.16 µM, first compound 0.949 µM
# [54] = second compound 3.16 µM, first compound 3 µM
# [55] = second compound 10 µM, first compound 0.00949 µM
# [56] = second compound 10 µM, first compound 0.03 µM
# [57] = second compound 10 µM, first compound 0.0949 µM
# [58] = second compound 10 µM, first compound 0.3 µM
# [59] = second compound 10 µM, first compound 0.949 µM
# [60] = second compound 10 µM, first compound 3 µM
# 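Also: spheroids exposed to agents for 7 days.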
# 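For viability, T/C in this document: 100% = DMSO vehicle control viability.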
compound,measurement,setting,value
CC(C)CC(NC(=O)C(Cc1ccccc1)NC(=O)c1cnccn1)B(O)O (stereo not given) + NC1CC1c1ccc(-c2cccc(O)c2)cc1,IC50,second compound 0.1 µM,0.511 nM
same,IC50,second compound 0.316 µM,0.476 nM
same,IC50,second compound 1 µM,0.422 nM
same,IC50,second compound 3.16 µM,0.37 nM
same,IC50,second compound 10 µM,0.406 nM
same,"viability, T/C",[1],85.2%
same,"viability, T/C",[2],0.72%
same,"viability, T/C",[3],0.11%
same,"viability, T/C",[4],0.11%
same,"viability, T/C",[5],0.08%
same,"viability, T/C",[6],0.28%
same,"viability, T/C",[7],77%
same,"viability, T/C",[8],0.78%
same,"viability, T/C",[9],1.61%
same,"viability, T/C",[10],0.94%
same,"viability, T/C",[11],0.07%
same,"viability, T/C",[12],0.15%
same,"viability, T/C",[13],66%
same,"viability, T/C",[14],2.41%
same,"viability, T/C",[15],0.13%
same,"viability, T/C",[16],0.11%
same,"viability, T/C",[17],0.07%
same,"viability, T/C",[18],0.18%
same,"viability, T/C",[19],57.5%
same,"viability, T/C",[20],2.76%
same,"viability, T/C",[21],0.12%
same,"viability, T/C",[22],0.32%
same,"viability, T/C",[23],0.11%
same,"viability, T/C",[24],0.17%
same,"viability, T/C",[25],62.5%
same,"viability, T/C",[26],4.98%
same,"viability, T/C",[27],1.52%
same,"viability, T/C",[28],1.12%
same,"viability, T/C",[29],1.32%
same,"viability, T/C",[30],0.55%
CC(C)CC(NC(=O)CNC(=O)c1cc(Cl)ccc1Cl)B1OC(=O)CC(CC(=O)O)(C(=O)O)O1 (stereo not given) + NC1CC1c1ccc(-c2cccc(O)c2)cc1,IC50,second compound 0.1 µM,11.8 nM
same,IC50,second compound 0.316 µM,8.59 nM
same,IC50,second compound 1 µM,8.37 nM
same,IC50,second compound 3.16 µM,10.1 nM
same,IC50,second compound 10 µM,9.49 nM
same,"viability, T/C",[1],94.3%
same,"viability, T/C",[2],98.9%
same,"viability, T/C",[3],101%
same,"viability, T/C",[4],58.3%
same,"viability, T/C",[5],1.47%
same,"viability, T/C",[6],0.24%
same,"viability, T/C",[7],80.7%
same,"viability, T/C",[8],95%
same,"viability, T/C",[9],115%
same,"viability, T/C",[10],42.8%
same,"viability, T/C",[11],4.55%
same,"viability, T/C",[12],0.6%
same,"viability, T/C",[13],92.5%
same,"viability, T/C",[14],112%
same,"viability, T/C",[15],140%
same,"viability, T/C",[16],38.1%
same,"viability, T/C",[17],2.09%
same,"viability, T/C",[18],0.29%
same,"viability, T/C",[19],113%
same,"viability, T/C",[20],104%
same,"viability, T/C",[21],126%
same,"viability, T/C",[22],50.3%
same,"viability, T/C",[23],2.37%
same,"viability, T/C",[24],0.26%
same,"viability, T/C",[25],110%
same,"viability, T/C",[26],139%
same,"viability, T/C",[27],129%
same,"viability, T/C",[28],46.3%
same,"viability, T/C",[29],0.57%
same,"viability, T/C",[30],0.27%
Nc1ccccc1NC(=O)c1ccc(CNC(=O)OCc2cccnc2)cc1 + NC1CC1c1ccc(-c2cccc(O)c2)cc1,IC50,second compound 0.1 µM,324 nM
same,IC50,second compound 0.316 µM,355 nM
same,IC50,second compound 1 µM,390 nM
same,IC50,second compound 3.16 µM,310 nM
same,IC50,second compound 10 µM,262 nM
same,"viability, T/C",[31],86.8%
same,"viability, T/C",[32],72.7%
same,"viability, T/C",[33],78.6%
same,"viability, T/C",[34],53%
same,"viability, T/C",[35],7.55%
same,"viability, T/C",[36],0.52%
same,"viability, T/C",[37],71.1%
same,"viability, T/C",[38],76.6%
same,"viability, T/C",[39],76.6%
same,"viability, T/C",[40],57.4%
same,"viability, T/C",[41],6.5%
same,"viability, T/C",[42],0.75%
same,"viability, T/C",[43],72.1%
same,"viability, T/C",[44],53%
same,"viability, T/C",[45],79.3%
same,"viability, T/C",[46],62.6%
same,"viability, T/C",[47],6.82%
same,"viability, T/C",[48],0.31%
same,"viability, T/C",[49],74.5%
same,"viability, T/C",[50],77%
same,"viability, T/C",[51],80.9%
same,"viability, T/C",[52],50.8%
same,"viability, T/C",[53],6.44%
same,"viability, T/C",[54],0.64%
same,"viability, T/C",[55],79.8%
same,"viability, T/C",[56],70.2%
same,"viability, T/C",[57],61.5%
same,"viability, T/C",[58],50.1%
same,"viability, T/C",[59],4.95%
same,"viability, T/C",[60],0.46%
O=C(C=Cc1cccc(S(=O)(=O)Nc2ccccc2)c1)NO + NC1CC1c1ccc(-c2cccc(O)c2)cc1,IC50,second compound 0.1 µM,90.7 nM
same,IC50,second compound 0.316 µM,74.9 nM
same,IC50,second compound 1 µM,< 9.49 nM
same,IC50,second compound 3.16 µM,64.8 nM
same,IC50,second compound 10 µM,113 nM
same,"viability, T/C",[31],67.6%
same,"viability, T/C",[32],64.1%
same,"viability, T/C",[33],49.6%
same,"viability, T/C",[34],36.1%
same,"viability, T/C",[35],0.36%
same,"viability, T/C",[36],69.3%
same,"viability, T/C",[37],58%
same,"viability, T/C",[38],53.2%
same,"viability, T/C",[39],48.6%
same,"viability, T/C",[40],21.1%
same,"viability, T/C",[41],0.35%
same,"viability, T/C",[42],59.1%
same,"viability, T/C",[43],44.8%
same,"viability, T/C",[44],51%
same,"viability, T/C",[45],49.6%
same,"viability, T/C",[46],25%
same,"viability, T/C",[47],0.46%
same,"viability, T/C",[48],49.2%
same,"viability, T/C",[49],49.9%
same,"viability, T/C",[50],63.3%
same,"viability, T/C",[51],45.2%
same,"viability, T/C",[52],25.6%
same,"viability, T/C",[53],0.37%
same,"viability, T/C",[54],30.9%
same,"viability, T/C",[55],66.8%
same,"viability, T/C",[56],57.6%
same,"viability, T/C",[57],53.6%
same,"viability, T/C",[58],29.8%
same,"viability, T/C",[59],0.44%
same,"viability, T/C",[60],41.2%
O=C(c1cc(Cc2n[nH]c(=O)c3ccccc23)ccc1F)N1CCN(C(=O)C2CC2)CC1 + NC1CC1c1ccc(-c2cccc(O)c2)cc1,IC50,second compound 0.1 µM,9080 nM
same,IC50,second compound 0.316 µM,5150 nM
same,IC50,second compound 1 µM,> 10000 nM
same,IC50,second compound 3.16 µM,> 10000 nM
same,IC50,second compound 10 µM,> 10000 nM
same,"viability, T/C",[5],72%
same,"viability, T/C",[6],74.9%
same,"viability, T/C","second compound 0.1 µM, first compound 0.316 µM",68.4%
same,"viability, T/C","second compound 0.1 µM, first compound 1 µM",68.5%
same,"viability, T/C","second compound 0.1 µM, first compound 3.16 µM",58.6%
same,"viability, T/C","second compound 0.1 µM, first compound 10 µM",49.5%
same,"viability, T/C",[11],68.6%
same,"viability, T/C",[12],73.7%
same,"viability, T/C","second compound 0.316 µM, first compound 0.316 µM",66.2%
same,"viability, T/C","second compound 0.316 µM, first compound 1 µM",57.6%
same,"viability, T/C","second compound 0.316 µM, first compound 3.16 µM",53.6%
same,"viability, T/C","second compound 0.316 µM, first compound 10 µM",45.7%
same,"viability, T/C",[17],76.5%
same,"viability, T/C",[18],77.3%
same,"viability, T/C","second compound 1 µM, first compound 0.316 µM",70.9%
same,"viability, T/C","second compound 1 µM, first compound 1 µM",64.8%
same,"viability, T/C","second compound 1 µM, first compound 3.16 µM",62.4%
same,"viability, T/C","second compound 1 µM, first compound 10 µM",57.4%
same,"viability, T/C",[23],78.8%
same,"viability, T/C",[24],79.8%
same,"viability, T/C","second compound 3.16 µM, first compound 0.316 µM",82.4%
same,"viability, T/C","second compound 3.16 µM, first compound 1 µM",70.7%
same,"viability, T/C","second compound 3.16 µM, first compound 3.16 µM",80%
same,"viability, T/C","second compound 3.16 µM, first compound 10 µM",60.6%
same,"viability, T/C",[29],81.5%
same,"viability, T/C",[30],81.1%
same,"viability, T/C","second compound 10 µM, first compound 0.316 µM",80.3%
same,"viability, T/C","second compound 10 µM, first compound 1 µM",93.3%
same,"viability, T/C","second compound 10 µM, first compound 3.16 µM",71.3%
same,"viability, T/C","second compound 10 µM, first compound 10 µM",87.1%
